Reference: patent US10821096B1, “Compounds for inhibiting NS3 and compositions containing the inhibited protein” (priority 2019, dated 2020)

Experiments:
[1] = molecular target: T1, NS3 (Hepatitis C virus genotype 4a, UniProt O39929, A1087S/A1113S/A1121T/A1128S/I1140V/I1160T/I1179L/R1118K/R1176A/S1127A); test: Enzyme inhibition assay (SensoLyte-520 HCV protease assay kit, FRET peptide); format: biochemical, HCV genotype 4a; settings: MOC-23 at 6.3 μM, NS3 4.0 μM, 5-FAM/QXL520 FRET peptide
T1 construct: NS3 protease domain 1-181 aa+N-terminal T7 tag and C-terminal His tag; T7 tag (N); made in house; host or cells: E. coli Rosette (DE3) pLysS, vector pET-3a
T1 sequence (O39929 1027-1207 A1087S/A1113S/R1118K/A1121T/S1127A/A1128S/I1140V/I1160T/R1176A/I1179L): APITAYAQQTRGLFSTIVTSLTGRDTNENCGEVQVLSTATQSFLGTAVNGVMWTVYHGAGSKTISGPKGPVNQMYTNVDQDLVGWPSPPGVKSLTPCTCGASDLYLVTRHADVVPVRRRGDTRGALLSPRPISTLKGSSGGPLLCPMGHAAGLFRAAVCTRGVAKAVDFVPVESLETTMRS
Experimental: The assay was performed using SensoLyte-520® HCV protease assay kit Fluorometric® (Anaspec, Fremont, Calif., USA) according to a modified procedure to suit the purpose of determination of allosteric inhibition. NS3 (4.0 μM) was mixed with MOC-23 (6.3 μM) for 15 minutes. Afterwards, 5-FAM/QXL™520 fluorescence resonance energy transfer (FRET) peptide was added as instructed by the assay kit manual. The sequence of this FRET peptide (5-FAM-SLGRKIQIQ) is derived from the cleavage site of NS4A/NS4B. In the FRET peptide, the fluorescence of 5-FAM is quenched by QXL™520. Upon cleavage into two separate fragments by HCV NS3/4A protease, the fluorescence of 5-FAM is recovered, and can be monitored at 490 nm/520 nm (excitation/emission). Controls included buffer, compound, compound+NS3, NS3+NS4A and FRET peptide separately. All test wells and controls were repeated in triplicates at the same 96-well plate.

[2] = molecular target: T1, NS3; test: Binding and competition assay (fluorescence anisotropy, displacement of FITC-NS4A from NS3); parameters: species or system HCV genotype 4a; settings: for binding affinity (in words): fluorescence anisotropy competition with FITC-NS4A
Experimental: Binding buffer (20 mM HEPES, 10 mM DTT, 200 mM NaCl, pH 7.6), a mixture of NS3 (1.8 μM) and FITC-NS4A ([…]) at the calculated affinity constant concentration were placed in a 96-well plate as binding test solution. A serial dilution of MOC compounds (dissolved in 1.5% DMSO in binding buffer) (1/2 dilution starting from 150 μM to 0.292 μM) was mixed gently with the binding text solution for 60 minutes in the dark. The dissociation constant was calculated according to the recommended equation embedded in GraphPad Prism v8.
The binding affinity test was performed using fluorescence anisotropy technique. In this test, maximum fluorescence was first determined at optimal ratio of NS3 (1.8 μM) and FITC-NS4A (0.1 μM). Compounds that compete with NS4A should be able to decrease the fluorescence of this mixture because they prevent the binding to occur and it should be concentration-dependent. […] The reproducibility was checked using another batch of the express NS3 protein following the same procedure and the value was calculated=7.815±1.014 μM. […] Therefore, compound MOC-23 was tested for its ability to inhibit the NS3 enzyme.

SMILES | inhibition of NS3 proteolytic activity [1] | Kd ([2]; dissociation constant (reproducibility check), another batch of the expressed NS3 protein, same procedure) | Kd ([2]; dissociation constant Kd (competition with FITC-NS4A), fluorescence anisotropy, NS3 1.8 μM, FITC-NS4A 0.1 μM, first batch of NS3) | binding affinity (in words) [2]
CCCCCNC(=O)c1ncc(C(=O)NCCCCNC(=N)N)[nH]1 [MOC-23, N^5-(4-guanidinobutyl)-N^2-(n-pentyl)-1H-imidazole-2,5-dicarboxamide] | abolished any proteolytic activity | 7.81 ± 1.01 µM | 6.3 ± 0.3 µM | highest affinity
CCCCCCNC(=O)c1ncc(C(=O)NCCCCNC(=N)N)[nH]1 [MOC-24, N^5-(4-guanidinobutyl)-N^2-(n-hexyl)-1H-imidazole-2,5-dicarboxamide] |  |  |  | binding affinity at similar level
